# Assay results from article PMC12087296 (Microbial Biotechnology, 2025).
# Read-outs that look alike come from different tables or passages of the source.
# Key:
# TlpQ [1] = target: T1, TlpQ (Pseudomonas aeruginosa, UniProt Q9I0I4); assay: isothermal titration calorimetry, […]°C; type: binding
# TlpQ [2] = target: T1, TlpQ; assay: isothermal titration calorimetry, […]°C; type: binding; remark: listed apart in the source
# T1 sequence (Q9I0I4 33-363 limits assumed): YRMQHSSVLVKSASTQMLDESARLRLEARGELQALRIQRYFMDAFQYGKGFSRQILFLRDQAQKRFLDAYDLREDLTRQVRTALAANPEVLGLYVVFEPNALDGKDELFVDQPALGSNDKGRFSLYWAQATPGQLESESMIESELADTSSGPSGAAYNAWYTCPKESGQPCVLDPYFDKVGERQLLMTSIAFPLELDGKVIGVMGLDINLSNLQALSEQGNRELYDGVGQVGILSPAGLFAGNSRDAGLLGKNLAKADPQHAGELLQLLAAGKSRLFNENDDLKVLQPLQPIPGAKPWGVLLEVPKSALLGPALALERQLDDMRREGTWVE
SMILES,Kd (TlpQ [1]),Kd (TlpQ [2])
NCCc1ccc(O)c(O)c1 [dopamine],137 µM,–
CNC[C@H](O)c1ccc(O)c(O)c1 [epinephrine],–,363 µM
